What was measured:
[1] = species on record: Rattus norvegicus; assay: Pressor potency of compound was determined in rat; format: functional
[2] = species on record: Gallus gallus; assay: Avian vasodepressor potency of compound was determined
[3] = species on record: Rattus norvegicus; assay: In vitro uterotonic potency of compound was determined in rat; format: functional
[4] = tested on: Rattus norvegicus; assay: In vivo antidiuretic potency of compound was determined in rat

| SMILES | Activity [1] [mg] | Activity [2] [mg] | Activity [3] [mg] | Activity [4] [mg] |
| --- | --- | --- | --- | --- |
| CN(C)C(=O)C[C@@H]1NC(=O)[C@H](CCC(N)=O)NC(=O)[C@H](Cc2ccccc2)NC(=O)[C@H](Cc2ccc(O)cc2)NC(=O)[C@@H](N)CSSC[C@@H](C(=O)N2CCC[C@H]2C(=O)N[C@@H](CCCCN)C(=O)NCC(N)=O)NC1=O | 2.55 | 0.39 | < 0.05 | 5.5 |
| NCCCC[C@H](NC(=O)[C@@H]1CCCN1C(=O)[C@@H]1CSSC[C@H](N)C(=O)N[C@@H](Cc2ccc(O)cc2)C(=O)N[C@@H](Cc2ccccc2)C(=O)N[C@@H](CCC(N)=O)C(=O)N[C@@H](CC(N)=O)C(=O)N1)C(=O)NCC(N)=O | – | – | – | 203 |
